From patent US8269000B2, “Substituted pyrimidine and triazine compounds” (Gruenenthal GmbH, priority 2008, dated 2012)

molecular target: T1, rat B1R (Rattus norvegicus, UniProt P97583); assay: FLIPR Ca2+ functional study on bradykinin receptor 1 (rB1R CHO K1 cells); format: cell-based; settings: % inhibition rat B1R at 10 μM
T1 construct: expressed in transfected cells; host or cells: CHO K1 cells
T1 sequence (P97583 1-337): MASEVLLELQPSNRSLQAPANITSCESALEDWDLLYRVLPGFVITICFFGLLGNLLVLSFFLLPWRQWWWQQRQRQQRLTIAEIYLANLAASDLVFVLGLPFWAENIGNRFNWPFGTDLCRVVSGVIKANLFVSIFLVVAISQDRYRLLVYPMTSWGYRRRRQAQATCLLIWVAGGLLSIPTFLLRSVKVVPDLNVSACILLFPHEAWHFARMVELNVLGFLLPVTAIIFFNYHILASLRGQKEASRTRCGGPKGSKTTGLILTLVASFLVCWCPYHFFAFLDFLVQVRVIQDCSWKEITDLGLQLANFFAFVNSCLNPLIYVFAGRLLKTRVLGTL
Summary of the method: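 Antagonism was calculated as % of maximal inhibition of the Ca2+ rise triggered by agonist at EC80 (Lys-Des-Arg9-bradykinin for hB1R, Des-Arg9-bradykinin for rB1R), added 10-20 min after test compound (10 μM or serial dilutions for IC50) to Fluo-4-loaded transfected CHO K1 cells on FLIPR. Duplicates or triplicates, ≥2 independent runs.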

| Compound | % inh. (rat B1R) 10 μM |
| --- | --- |
| COc1cc(C)c(S(=O)(=O)N(C)C(COc2nccc(N3CCC(c4nc(-c5ccncc5)no4)CC3)n2)c2ccccc2)c(C)c1 (stereo not shown) [G_CC-134] | 88% |
| COc1cc(C)c(S(=O)(=O)N2CCCCC2COc2ccnc(N3CCN(c4ncccn4)CC3)n2)c(C)c1 (stereo not shown) [H_CC-004, 4-[[1-(4-methoxy-2,6-dimethylphenyl)sulfonyl-2-pipendinyl]methoxy]-2-[4-(2-pyrimidinyl)-1-piperazinyl]pyrimidine] | 57% |
| COc1cc(C)c(S(=O)(=O)N2CCCCC2COc2ccnc(N3CCN(c4ccncc4)CC3)n2)c(C)c1 (stereo not shown) [H_CC-005, 4-[[1-(4-methoxy-2,6-dimethylphenyl)sulfonyl-2-pipendinyl]methoxy]-2-[4-(4-pyridyl)-1-piperazinyl]pyrimidine] | 94% |
| COc1cc(C)c(S(=O)(=O)N2CCCCC2COc2ccnc(N3CCN(CC4CCN(C)CC4)CC3)n2)c(C)c1 (stereo not shown) [H_CC-006, 4-[[1-(4-methoxy-2,6-dimethylphenyl)sulfonyl-2-pipendinyl]methoxy]-2-[4-[(1-methyl-4-pipendinyl)methyl]-1-piperazinyl]pyrimidine] | 61% |
| COc1cc(C)c(S(=O)(=O)N2c3ccccc3C[C@H]2COc2ccnc(N3CCC(CCN4CCCC4)CC3)n2)c(C)c1 [H_CC-017, (2S)-1-(4-methoxy-2,6-dimethylphenyl)sulfonyl-2-[[2-[4-(2-1-pyrrolidinylethyl)-1-pipendinyl]-4-pyrimidinyl]oxymethyl]indoline] | 93% |
| COc1cc(C)c(S(=O)(=O)N2c3ccccc3C[C@H]2COc2ccnc(N3CCC(N4CCN(C)CC4)CC3)n2)c(C)c1 [H_CC-018, (2S)-1-(4-methoxy-2,6-dimethylphenyl)sulfonyl-2-[[2-[4-(4-methyl-1-piperazinyl)-1-pipendinyl]-4-pyrimidinyl]oxymethyl]indoline] | 91% |
| COc1cc(C)c(S(=O)(=O)N2c3ccccc3C[C@H]2COc2ccnc(N3CCN(CC4CCN(C)CC4)CC3)n2)c(C)c1 [H_CC-020, (2S)-1-(4-methoxy-2,6-dimethylphenyl)sulfonyl-2-[[2-[4-[(1-methyl-4-pipendinyl)methyl]-1-piperazinyl]-4-pyrimidinyl]oxymethyl]indoline] | 93% |

The remaining lines, values ahead:

| % inh. (rat B1R) 10 μM | Compound |
| --- | --- |
| 93% | COc1cc(C)c(S(=O)(=O)N2CCC[C@H]2COc2ccnc(N3CCN(CC4CCN(C)CC4)CC3)n2)c(C)c1 [H_CC-012, 4-[[(2S)-1-(4-methoxy-2,6-dimethylphenyl)sulfonyl-2-pyrrolidinyl]methoxy]-2-[4-[(1-methyl-4-pipendinyl)methyl]-1-piperazinyl]pyrimidine] |
| 77% | COc1cc(C)c(S(=O)(=O)N2CCCCC2COc2ccnc(N3CCC(CCN4CCCCC4)CC3)n2)c(C)c1 (stereo not shown) [H_CC-022] |

same assay, conditions: CHO-K1, % inhibition rat B1R at 10 μM, read-out: % inh. (rat B1R) 10 μM

| Compound | inhibition at 10 µM |
| --- | --- |
| COc1cc(C)c(S(=O)(=O)N(C)C(COc2nccc(N3CCCC3Cc3ccccn3)n2)c2ccccc2)c(C)c1 (stereo not shown) [G_CC-133, 4-methoxy-N,2,6-trimethyl-N-[1-phenyl-2-[4-[2-(pyridin-2-yl-methyl)-pyrrolidin-1-yl]-pyrimidin-2-yl]oxy-ethyl]benzenesulfonic acid amide] | 78% |
| COc1cc(C)c(S(=O)(=O)N(C)C(COc2nccc(N3CCC(c4cccc(F)c4)(N4CCN(C)CC4)CC3)n2)c2ccccc2)c(C)c1 (stereo not shown) [G_CC-135, N-[2-[4-[4-(3-fluorophenyl)-4-(4-methyl-piperazin-1-yl)-piperidin-1-yl]-pyrimidin-2-yl]oxy-1-phenyl-ethyl]-4-methoxy-N,2,6-trimethyl-benzenesulfonic acid amide] | 53% |
| COc1cc(C)c(S(=O)(=O)N(C)C(COc2nccc(N3CCC(Oc4ccccn4)CC3)n2)c2ccccc2)c(C)c1 (stereo not shown) [G_CC-136, 4-methoxy-N,2,6-trimethyl-N-[1-phenyl-2-[4-(4-pyridin-2-yloxy-piperidin-1-yl)-pyrimidin-2-yl]oxy-ethyl]benzenesulfonic acid amide] | 81% |
| COc1cc(C)c(S(=O)(=O)N(C)C(COc2nccc(N3CCC(C)(N4CCOCC4)CC3)n2)c2ccccc2)c(C)c1 (stereo not shown) [G_CC-137, 4-methoxy-N,2,6-trimethyl-N-[2-[4-(4-methyl-4-morpholin-4-yl-piperidin-1-yl)-pyrimidin-2-yl]oxy-1-phenyl-ethyl]benzenesulfonic acid amide] | 77% |
| COc1cc(C)c(S(=O)(=O)N(C)C(COc2nccc(N(C)CCN3CCC(O)(c4cccnc4)CC3)n2)c2ccccc2)c(C)c1 (stereo not shown) [G_CC-138, N-[2-[4-[2-(4-hydroxy-4-pyridin-3-yl-piperidin-1-yl)-ethyl-methyl-amino]-pyrimidin-2-yl]oxy-1-phenyl-ethyl]-4-methoxy-N,2,6-trimethyl-benzenesulfonic acid amide] | 56% |
| COc1cc(C)c(S(=O)(=O)N2CCCCC2COc2ccnc(N3CCN(C4CCN(C)CC4)CC3)n2)c(C)c1 (stereo not shown) [H_CC-001, 4-[[1-(4-methoxy-2,6-dimethylphenyl)sulfonyl-2-piperidinyl]methoxy]-2-[4-(1-methyl-4-piperidinyl)-1-piperazinyl]pyrimidine] | 65% |
| COc1cc(C)c(S(=O)(=O)N2CCCCC2COc2ccnc(N3CCC(CCN4CCCC4)CC3)n2)c(C)c1 (stereo not shown) [H_CC-002, 4-[[1-(4-methoxy-2,6-dimethylphenyl)sulfonyl-2-piperidinyl]methoxy]-2-[4-(2-1-pyrrolidinylethyl)-1-piperidinyl]pyrimidine] | 77% |
| COc1cc(C)c(S(=O)(=O)N2CCCCC2COc2ccnc(N3CCN(C)CC3)n2)c(C)c1 (stereo not shown) [H_CC-003, 4-[[1-(4-methoxy-2,6-dimethylphenyl)sulfonyl-2-piperidinyl]methoxy]-2-(4-methyl-1-piperazinyl)pyrimidine] | 58% |
| COc1cc(C)c(S(=O)(=O)N2CCCCC2COc2ccnc(N3CCC(O)(c4cccnc4)CC3)n2)c(C)c1 (stereo not shown) [H_CC-007, 1-[4-[[1-(4-methoxy-2,6-dimethylphenyl)sulfonyl-2-piperidinyl]methoxy]-2-pyrimidinyl]-4-(3-pyridyl)-4-piperidinol] | 71% |

The remaining lines, values ahead:

| inhibition at 10 µM | Compound |
| --- | --- |
| 95% | COc1cc(C)c(S(=O)(=O)N2CCC[C@H]2COc2ccnc(N3CCN(C)CC3)n2)c(C)c1 [H_CC-008, 4-[[(2S)-1-(4-methoxy-2,6-dimethylphenyl)sulfonyl-2-pyrrolidinyl]methoxy]-2-(4-methyl-1-piperazinyl)pyrimidine] |
| 85% | COc1cc(C)c(S(=O)(=O)N2CCC[C@H]2COc2ccnc(N3CCC(CCN4CCCC4)CC3)n2)c(C)c1 [H_CC-009, 4-[[(2S)-1-(4-methoxy-2,6-dimethylphenyl)sulfonyl-2-pyrrolidinyl]methoxy]-2-[4-(2-1-pyrrolidinylethyl)-1-piperidinyl]pyrimidine] |
| 100% | COc1cc(C)c(S(=O)(=O)N2CCC[C@H]2COc2ccnc(N3CCC(N4CCN(C)CC4)CC3)n2)c(C)c1 [H_CC-010, 4-[[(2S)-1-(4-methoxy-2,6-dimethylphenyl)sulfonyl-2-pyrrolidinyl]methoxy]-2-[4-(4-methyl-1-piperazinyl)-1-piperidinyl]pyrimidine] |
| 56% | COc1cc(C)c(S(=O)(=O)N2CCC[C@H]2COc2ccnc(N3CCN(c4ncccn4)CC3)n2)c(C)c1 [H_CC-011, 4-[[(2S)-1-(4-methoxy-2,6-dimethylphenyl)sulfonyl-2-pyrrolidinyl]methoxy]-2-[4-(2-pyrimidinyl)-1-piperazinyl]pyrimidine] |
| 79% | COc1cc(C)c(S(=O)(=O)N2CCC[C@H]2COc2ccnc(N3CCC(O)(c4cccnc4)CC3)n2)c(C)c1 [H_CC-013, 1-[4-[[(2S)-1-(4-methoxy-2,6-dimethylphenyl)sulfonyl-2-pyrrolidinyl]methoxy]-2-pyrimidinyl]-4-(3-pyridyl)-4-piperidinol] |
| 53% | COc1cc(C)c(S(=O)(=O)N2CC(Oc3ccnc(N4CCC(CCN5CCCC5)CC4)n3)C2)c(C)c1 [H_CC-014, 4-[[1-(4-methoxy-2,6-dimethylphenyl)sulfonyl-3-azetidinyl]oxy]-2-[4-(2-1-pyrrolidinylethyl)-1-piperidinyl]pyrimidine] |
| 56% | COc1cc(C)c(S(=O)(=O)N2CC(Oc3ccnc(N4CCC(N5CCN(C)CC5)CC4)n3)C2)c(C)c1 [H_CC-015, 4-[[1-(4-methoxy-2,6-dimethylphenyl)sulfonyl-3-azetidinyl]oxy]-2-[4-(4-methyl-1-piperazinyl)-1-piperidinyl]pyrimidine] |
| 67% | COc1cc(C)c(S(=O)(=O)N2c3ccccc3C[C@H]2COc2ccnc(N3CCN(C)CC3)n2)c(C)c1 [H_CC-016, (2S)-1-(4-methoxy-2,6-dimethylphenyl)sulfonyl-2-[[2-(4-methyl-1-piperazinyl)-4-pyrimidinyl]oxymethyl]indoline] |
| 98% | COc1cc(C)c(S(=O)(=O)N2c3ccccc3C[C@H]2COc2ccnc(N3CCN(c4ccncc4)CC3)n2)c(C)c1 [H_CC-019, (2S)-1-(4-methoxy-2,6-dimethylphenyl)sulfonyl-2-[[2-[4-(4-pyridyl)-1-piperazinyl]-4-pyrimidinyl]oxymethyl]indoline] |
| 62% | COc1cc(C)c(S(=O)(=O)N2CCCCC2COc2ccnc(N3CCC4(CCN(Cc5ccccc5)C4)C3)n2)c(C)c1 (stereo not shown) [H_CC-021, 3-benzyl-7-[4-[[1-(4-methoxy-2,6-dimethylphenyl)sulfonyl-2-piperidinyl]methoxy]-2-pyrimidinyl]-3,7-diazaspiro[4.4]nonane] |
